We go through seven molecules from patent US12391679B2, “Benzamide-substituted bicyclic imidazo- and pyrazolo-fused -pyridine, -pyrimide, and -pyridazine compounds for treatment of inflammatory diseases” (ONCO3R Therapeutics BV, priority 2019, dated 2025).

For test [1], the system named is LPS triggered IL-10 secretion in monocytes. Put plainly: Monocytes assay: LPS-triggered IL-10 (ELISA). In kind it is cell-based, human. Conditions: Homo sapiens, Monocyte, LPS-triggered IL-10 induction, median maximal fold change vs LPS only, read-out: IL-10 FCmax median. As to the method:
(§1) This assay evaluates illustrative compounds of the invention for their inhibition of LPS-induced TNFα and LPS triggered IL-10 secretion in monocytes.
(§2) PBMCs are isolated from human blood samples (buffycoats). The buffy coat is aseptically transferred into a 50 mL Falcon tube, and diluted 1/2 in PBS. Falcon tubes are filled with 20 mL Lymphoprep™, on top of which 25 mL of the buffy coat is carefully added, tubes are centrifuged for 35 min at 400 g in temperature controlled centrifuge, without brake, at 25° C. PBMCs are aspirated from the white interface layer between sample and Lymphoprep™. PBMCs are washed five times in PBS.
(§3) PBMCs are centrifuged at 300×g for 10 min and resuspended at a density of 1.0*10^7 cells/80 μL Miltenyi buffer (PBS, pH 7.4, 1% FBS, 2 mM EDTA).
(§4) Starting from this point of the protocol all steps are performed on ice. 20 μL of CD14+ micro-beads are added per 1.0*10^7 cells, the tube is mixed and incubated for 15 min in the fridge at 4° C. Cell suspension volume is adjusted to total volume of 100 mL using Miltenyi buffer, mixed gently and subsequently centrifuged for 10 min at 300×g. Supernatant is discarded and cell pellet is resuspended in 12 mL of Miltenyi buffer.
(§5) Four LS columns are placed in the MACS Separator (magnet) from Miltenyi Biotec, and are prewet by rinsing with 3 mL of MACS buffer per column. Three mL of cell suspension is added onto the column (max 1*10^8 of labelled cells/column), and columns are subsequently washed 3 times with 3 mL of Miltenyi buffer.
(§6) The columns are removed from the magnets, and 5 mL of Miltenyi buffer are added to the column to flush out the CD14+ fraction by pushing the plunger into the column. The flushed fractions are collected in a fresh 50 mL Falcon and volume is adjusted to 30 mL using Miltenyi buffer, cells are centrifuged for 10 min at 300×g. The obtained cell pellet is resuspended in 10 mL RPMI w/o FBS, and cell density is determined using a hematologic analyser (Sysmex XS-500i).
(§7) A compound dilution plate is made in 100% DMSO by 3-fold dilution of 10 mM stock solution. An intermediate dilution plate (10× final concentration) is made by diluting the compound dilution plate 50-fold in RPMI medium.
(§8) 10 μL of the 10× final concentration compound is added to the cells and incubated for 1 h at 37° C. before addition of trigger. No trigger conditions/trigger conditions are spiked with equal final DMSO concentrations of 0.2% DMSO. 10 μL of 10×LPS (final conc. 200 ng/mL) solution are added to all wells except for the ‘no trigger wells’ where 10 μL medium is added. Supernatant is collected after 4 h of LPS triggering.
A Lumitrac 600 Greiner 384-well plate is coated with 40 μL of capture antibody (final concentration of 1 μg/mL in 1×PBS) and stored overnight at 4° C. The next day the plate is washed three times with PBST (PBS+0.05% Tween20) and once with PBS followed by the addition of 100 μL of blocking buffer (1% BSA-5% Sucrose) and plates are sealed and incubated for at least 4 h at RT. After washing the plate once with PBST and once with PBS, 40 μL of standard or sample are added (IL-10 standard curve is prepared using a 1/2 serial dilution starting from 2000 pg/mL; dilutions are made in dilution buffer (PBS+1% BSA)). […] Plates are washed twice with PBST, and once with PBS, whereafter 35 μL of Strep-HRP conjugate (0.5 μg/mL final concentration diluted in dilution buffer) is added. Plates are incubated in the dark, at RT for at least 45 min but no longer than 1 h. Plates are washed twice with PBST, and once with PBS. Thereafter, 50 μL of luminol substrate is added to each well (prepared according to manufacturer's instructions), and incubated for 5 min at RT protected from light.
To quantify these increases, fold changes (FC) compared to ‘LPS only’ are calculated for each concentration tested and the maximal FC is calculated (IL-10 FCmax): […]
For orientation: In an ELISA, binding on a coated surface is turned into a signal by an enzyme label.

The test system of test [2] is LPS-induced TNFα in monocytes. As to the kind of experiment: Monocytes assay: LPS-triggered TNFα (ELISA). Conditions: Homo sapiens, Monocyte, LPS-triggered TNFα inhibition. It counts as cell-based, human. As to the method:
as §1, §2, §3, §4, §5, §6, §7, §8
The plate is then washed once with PBST (PBS+0.05% Tween20) and once with PBS followed by the addition of 100 μL of blocking buffer (1% Bovine Serum Albumin (BSA)-5% Sucrose) and plates are sealed and incubated for at least 4 h at RT. After washing the plate once with PBST and once with PBS, […]. Plates are washed twice with PBST, and once with PBS, after which 35 μL of the detection antibody is added (final concentration 0.25 μg/mL diluted in dilution buffer) and plates are incubated for at least 2 h at RT. Plates are washed twice with PBST, and once with PBS, whereafter 35 μL of Strep-HRP conjugate (0.5 μg/mL final concentration diluted in dilution buffer) is added. Plates are incubated in the dark, at RT for at least 45 min but no longer than 1 h. Plates are washed twice with PBST, and once with PBS. Thereafter, 50 μL of luminol substrate is added to each well (prepared according to manufacturer's instructions), and incubated for 5 min at RT protected from light.
To measure the inhibition of LPS induced TNFα, percentage inhibition (PIN) values are calculated for all concentrations tested, compared to controls.

The next test addresses T1, SIK3 (Homo sapiens, UniProt Q9Y2K2).
T1 construct: purchased SignalChem S12-11G-100
Put plainly: ADP-Glo kinase assay, SIK3. In kind it is biochemical. In a few lines:
(§9)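 Luminescent ADP-formation read-out: enzyme–substrate mix + ATP, 120 min RT; ATP depletion 40 min RT; ADP→ATP conversion with luciferase/luciferin 30 min RT. Controls: 1% DMSO (negative), 10 μM staurosporine final (positive).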
(ADP-Glo first removes unused ATP, then detects ADP through luciferase.)

The next test addresses T2, SIK1 (Homo sapiens, UniProt P57059).
T2 construct: purchased Carna Biosciences 02-131
As to the kind of experiment: ADP-Glo kinase assay, SIK1. In kind it is biochemical. The method, boiled down:
as §9

Test [3] deals with LPS-induced TNFα in monocyte-derived macrophages. As to the kind of experiment: MdM assay: LPS-triggered TNFα (ELISA). The following applies: Macrophage; human MdM; LPS 200 ng/mL; supernatant after 20 h; inhibition of TNFα; read-out: TNFα EC50. It counts as cell-based, human. As to the method:
This assay evaluates illustrative compounds of the invention for their inhibition of LPS-induced TNFα and LPS triggered IL-10 secretion in monocyte-derived macrophages. PBMCs are isolated from human blood samples (buffycoats). The buffy coat is aseptically transferred into a 50 mL Falcon tube, and diluted 1/2 in PBS. Falcon tubes are filled with 20 mL LymphoprepTM, on top of which 25 mL of the buffy coat is carefully added, tubes are centrifuged for 35 min at 400 g in temperature controlled centrifuge, without brake, at 25° C. PBMCs are aspirated from the white interface layer between sample and LymphoprepTM. PBMCs are washed five times in PBS. […] PBMCs are centrifuged at 300×g for 10 min and resuspended at a density of 1.0*10^7 cells/80 μL Miltenyi buffer (PBS, pH 7.4, 1% FBS, 2 mM EDTA). Starting from this point of the protocol all steps are performed on ice. 20 μL of CD14+ micro-beads are added per 1.0*10^7 cells, the tube is mixed and incubated for 15 min in the fridge at 4° C. Cell suspension volume is adjusted to total volume of 100 mL using Miltenyi buffer, mixed gently and subsequently centrifuged for 10 min at 300×g. Supernatant is discarded and cell pellet is resuspended in 12 mL of Miltenyi buffer. Four LS columns are placed in the MACS Separator (magnet) from Miltenyi Biotec, and are prewet by rinsing with 3 mL of MACS buffer per column. Three mL of cell suspension is added onto the column (max 1*10^8 of labelled cells/column), and columns are subsequently washed 3 times with 3 mL of Miltenyi buffer. The columns are removed from the magnets, and 5 mL of Miltenyi buffer are added to the column to flush out the CD14+ fraction by pushing the plunger into the column. The flushed fractions are collected in a fresh 50 mL Falcon and volume is adjusted to 30 mL using Miltenyi buffer, cells are centrifuged for 10 min at 300×g. The obtained cell pellet is resuspended in 10 mL RPMI w/o FBS, and cell density is determined using a hematologic analyser (Sysmex XS-500i). […] On day 10, MdMs are triggered and compound is added. A compound dilution plate is made in 100% DMSO by 3-fold dilution of 10 mM stock solution. An intermediate dilution plate (10× final concentration) is made by diluting the compound dilution plate […] in RPMI medium. Medium is carefully removed from cell plates using multichannel pipette, and replaced by 80 μL fresh medium. 10 μL of the 10× final concentration compound is added to the cells and incubated for 1 hour at 37° C. before addition of trigger. No trigger conditions/trigger conditions are spiked with equal final DMSO concentrations of 0.2% DMSO. 10 μL of 10×LPS (final conc. 200 ng/mL) solution are added to all wells except for the 'no trigger wells' where 10 μL medium is added. Supernatant is collected after 2 h (IL-10 determination) and after 20 h (TNFα determination) of LPS triggering. […] The plate is then washed once with PBST (PBS+0.05% Tween20) and once with PBS followed by the addition of 100 μL of blocking buffer (1% Bovine Serum Albumin (BSA) -5% Sucrose) and plates are sealed and incubated for at least 4 h at RT. After washing the plate once with PBST and once with PBS, 40 μL of standard or sample are added (TNFα standard curve is prepared using a 1/2 serial dilution starting from 16000 pg/mL; dilutions are made in dilution buffer (PBS+1% BSA)). Plates are washed twice with PBST, and once with PBS, after which 35 μL of the detection antibody is added (final concentration 0.25 μg/mL diluted in dilution buffer) and plates are incubated for at least 2 h at RT. Plates are washed twice with PBST, and once with PBS, where after 35 μL of Strep-HRP conjugate (0.5 μg/mL final concentration diluted in dilution buffer) is added. […] Plates are washed twice with PBST, and once with PBS. Thereafter, 50 μL of luminol substrate is added to each well (prepared according to manufacturer's instructions), and incubated for 5 min at RT protected from light.

The next test addresses T3, SIK2 (Homo sapiens, UniProt Q9H0K1).
T3 construct: purchased ThermoFisher Scientific PV4792
Put plainly: ADP-Glo kinase assay, SIK2. In kind it is biochemical. In a few lines: as §9

The term EC50 denotes the concentration at which the effect is half-maximal. What is called IC50 is the concentration at which inhibition is half-maximal.

T1 sequence (Q9Y2K2 59-365 limits assumed): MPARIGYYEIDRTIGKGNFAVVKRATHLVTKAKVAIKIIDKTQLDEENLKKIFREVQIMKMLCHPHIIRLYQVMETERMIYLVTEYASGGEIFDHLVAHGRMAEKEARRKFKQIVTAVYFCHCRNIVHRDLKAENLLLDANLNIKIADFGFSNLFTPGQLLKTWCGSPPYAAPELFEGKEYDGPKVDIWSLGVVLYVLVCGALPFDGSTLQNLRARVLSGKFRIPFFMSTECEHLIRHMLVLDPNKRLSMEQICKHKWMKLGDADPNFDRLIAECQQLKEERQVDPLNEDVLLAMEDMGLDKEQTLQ
T3 sequence (Q9H0K1 whole entry): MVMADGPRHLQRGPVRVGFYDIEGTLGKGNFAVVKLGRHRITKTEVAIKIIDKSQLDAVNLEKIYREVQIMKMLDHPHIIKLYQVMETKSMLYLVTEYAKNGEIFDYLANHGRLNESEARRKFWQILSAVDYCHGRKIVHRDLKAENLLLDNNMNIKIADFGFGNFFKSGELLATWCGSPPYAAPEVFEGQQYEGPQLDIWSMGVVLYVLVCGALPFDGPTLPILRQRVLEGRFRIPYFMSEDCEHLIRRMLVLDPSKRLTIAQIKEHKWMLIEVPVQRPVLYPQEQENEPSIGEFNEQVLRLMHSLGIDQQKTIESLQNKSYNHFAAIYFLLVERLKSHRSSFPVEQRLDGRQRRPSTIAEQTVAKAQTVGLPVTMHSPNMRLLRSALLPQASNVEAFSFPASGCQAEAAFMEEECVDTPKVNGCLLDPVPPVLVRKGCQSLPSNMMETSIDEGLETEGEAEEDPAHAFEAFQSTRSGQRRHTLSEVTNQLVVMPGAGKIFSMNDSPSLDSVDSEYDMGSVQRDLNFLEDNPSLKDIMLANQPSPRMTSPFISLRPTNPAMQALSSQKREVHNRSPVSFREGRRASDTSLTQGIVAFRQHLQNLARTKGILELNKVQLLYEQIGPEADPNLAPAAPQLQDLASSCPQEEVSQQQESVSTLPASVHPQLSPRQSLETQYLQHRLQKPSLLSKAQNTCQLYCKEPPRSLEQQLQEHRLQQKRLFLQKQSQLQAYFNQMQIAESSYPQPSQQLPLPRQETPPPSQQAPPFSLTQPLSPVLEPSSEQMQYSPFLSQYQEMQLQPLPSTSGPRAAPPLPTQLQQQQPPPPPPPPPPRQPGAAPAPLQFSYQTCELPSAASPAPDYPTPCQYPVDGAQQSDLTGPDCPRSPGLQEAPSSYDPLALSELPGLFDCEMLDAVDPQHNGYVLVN
T2 sequence (P57059 whole entry): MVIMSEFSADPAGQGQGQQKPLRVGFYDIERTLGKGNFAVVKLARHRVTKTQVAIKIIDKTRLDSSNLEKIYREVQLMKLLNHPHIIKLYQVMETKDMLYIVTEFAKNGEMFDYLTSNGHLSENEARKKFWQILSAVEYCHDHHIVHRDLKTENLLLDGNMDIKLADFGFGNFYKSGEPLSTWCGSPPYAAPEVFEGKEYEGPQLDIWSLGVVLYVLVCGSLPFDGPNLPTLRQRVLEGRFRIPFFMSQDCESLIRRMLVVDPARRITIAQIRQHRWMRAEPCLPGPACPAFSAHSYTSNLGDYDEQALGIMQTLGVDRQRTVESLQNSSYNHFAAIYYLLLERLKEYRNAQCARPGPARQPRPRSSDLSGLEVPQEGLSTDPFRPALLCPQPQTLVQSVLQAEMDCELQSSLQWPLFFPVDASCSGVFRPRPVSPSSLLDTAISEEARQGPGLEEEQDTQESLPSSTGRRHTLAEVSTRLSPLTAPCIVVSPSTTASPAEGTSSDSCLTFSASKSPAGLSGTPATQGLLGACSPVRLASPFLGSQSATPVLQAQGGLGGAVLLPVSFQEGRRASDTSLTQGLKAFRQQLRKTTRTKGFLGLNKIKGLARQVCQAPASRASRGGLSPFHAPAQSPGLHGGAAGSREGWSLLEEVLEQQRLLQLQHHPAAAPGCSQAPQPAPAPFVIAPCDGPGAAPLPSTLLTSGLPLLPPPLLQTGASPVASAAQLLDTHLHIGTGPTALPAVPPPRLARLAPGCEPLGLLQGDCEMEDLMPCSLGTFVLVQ

In the case of `COc1cc(-c2cnn3cc(C(C)(C)C#N)ccc23)cc(OC(F)F)c1C(=O)N[C@@H]1C[C@@H]1F` (racemic) [Cpd 233, 4-[6-(1-cyano-1-methyl-ethyl)pyrazolo[1,5-a]pyridin-3-yl]-2-(difluoromethoxy)-N-(2-fluorocyclopropyl)-6-methoxy-benzamide], in test [1], the maximal fold induction is < 1.5. In test [2], this molecule gave an EC50 of 100 to 1000 nM.
Regarding `COc1cc(-c2cnc3cc(C4(C#N)CCCC4)ccn23)cc(OC(F)F)c1C(=O)NC1CC1` [Cpd 53, 4-[7-(1-cyanocyclopentyl)imidazo[1,2-a]pyridin-3-yl]-N-cyclopropyl-2-(difluoromethoxy)-6-methoxy-benzamide], the IC50 on SIK3 was 0.01 to 10 nM; on SIK1, > 500 nM; on SIK2, > 500 nM. Further, the concentration for a half-maximal effect (EC50) in test [3] lay in the range of 100 to 1000 nM.
Regarding `COc1cc(-c2cnc3cc(C4CCCN(C)C4)ccn23)cc(OC(F)F)c1C(=O)NC1CC1` (stereo not drawn) [Cpd 67, N-cyclopropyl-2-(difluoromethoxy)-6-methoxy-4-[7-(1-methyl-3-piperidyl)imidazo[1,2-a]pyridin-3-yl]benzamide], the IC50 against SIK3 was 0.01 to 10 nM; at SIK1, > 500 nM; at SIK2, 10 to 100 nM. In test [3], the EC50 lay within 100 to 1000 nM.
On the same counts, the results for `COc1cc(-c2cnc3cc(C4CCN(C)CC4)ccn23)cc(OC(F)F)c1C(=O)NC1CC1` [Cpd 68, N-cyclopropyl-2-(difluoromethoxy)-6-methoxy-4-[7-(1-methyl-4-piperidyl)imidazo[1,2-a]pyridin-3-yl]benzamide] are 0.01 to 10 nM, > 500 nM, 10 to 100 nM and 1000 to 5000 nM.
Consider `COc1cc(-c2cnc3cc(C(C)(C)OC)ccn23)cc(OC(F)F)c1C(=O)NC1CC1` [Cpd 120, N-cyclopropyl-2-(difluoromethoxy)-6-methoxy-4-[7-(1-methoxy-1-methyl-ethyl)imidazo[1,2-a]pyridin-3-yl]benzamide], for which the IC50 against SIK3 was 0.01 to 10 nM; on SIK1 it was > 500 nM; against SIK2 it was > 500 nM. In test [3], the 50% effective concentration (EC50) fell in the range of 100 to 1000 nM.
Consider `COc1cc(-c2cnc3cc(C(C)(O)C(C)C)ccn23)cc(OC(F)F)c1C(=O)NC1CC1` (stereo not drawn) [Cpd 135, N-cyclopropyl-2-(difluoromethoxy)-4-[7-(1-hydroxy-1,2-dimethyl-propyl)imidazo[1,2-a]pyridin-3-yl]-6-methoxy-benzamide], for which the results for the IC50 against SIK3, against SIK1 and on SIK2 were 10 to 100 nM, > 500 nM and > 500 nM, respectively. Moreover, the 50% effective concentration (EC50) in test [3] lay within 100 to 1000 nM.
Turning to `COc1cc(-c2cnn3cc(C(C)(C)C#N)ccc23)cc(OC(F)F)c1C(=O)N[C@H]1C[C@H]1F` [Cpd 234, 4-[6-(1-cyano-1-methyl-ethyl)pyrazolo[1,5-a]pyridin-3-yl]-2-(difluoromethoxy)-N-[(1S,2R)-2-fluorocyclopropyl]-6-methoxy-benzamide], the maximal fold induction in test [1] was < 1.5. Further, the EC50 in test [2] fell in the range of 100 to 1000 nM.
